Measurements: patent US10953015B2, “Use of adenosine receptor signaling to regulate P-gp function” (CORNELL UNIVERSITY, priority 2016, dated 2021)
“Also recorded” adds a separate entry of the source.

Legend:
P-gp [1] = molecular target: T1, P-gp (Mus musculus, UniProt P21447); assay: Epirubicin brain accumulation assay; type: in vivo; details: mice; 10 mg/kg epirubicin i.v. with 0.05 mg/kg Lexiscan® or 50 mg/kg PSC833 for 15 minutes
T1 construct: down-modulation of P-gp expression and function in brain vascular endothelial cells in WT mice; from tissue; host or cells: brain of WT mice
T1 sequence (P21447 whole entry): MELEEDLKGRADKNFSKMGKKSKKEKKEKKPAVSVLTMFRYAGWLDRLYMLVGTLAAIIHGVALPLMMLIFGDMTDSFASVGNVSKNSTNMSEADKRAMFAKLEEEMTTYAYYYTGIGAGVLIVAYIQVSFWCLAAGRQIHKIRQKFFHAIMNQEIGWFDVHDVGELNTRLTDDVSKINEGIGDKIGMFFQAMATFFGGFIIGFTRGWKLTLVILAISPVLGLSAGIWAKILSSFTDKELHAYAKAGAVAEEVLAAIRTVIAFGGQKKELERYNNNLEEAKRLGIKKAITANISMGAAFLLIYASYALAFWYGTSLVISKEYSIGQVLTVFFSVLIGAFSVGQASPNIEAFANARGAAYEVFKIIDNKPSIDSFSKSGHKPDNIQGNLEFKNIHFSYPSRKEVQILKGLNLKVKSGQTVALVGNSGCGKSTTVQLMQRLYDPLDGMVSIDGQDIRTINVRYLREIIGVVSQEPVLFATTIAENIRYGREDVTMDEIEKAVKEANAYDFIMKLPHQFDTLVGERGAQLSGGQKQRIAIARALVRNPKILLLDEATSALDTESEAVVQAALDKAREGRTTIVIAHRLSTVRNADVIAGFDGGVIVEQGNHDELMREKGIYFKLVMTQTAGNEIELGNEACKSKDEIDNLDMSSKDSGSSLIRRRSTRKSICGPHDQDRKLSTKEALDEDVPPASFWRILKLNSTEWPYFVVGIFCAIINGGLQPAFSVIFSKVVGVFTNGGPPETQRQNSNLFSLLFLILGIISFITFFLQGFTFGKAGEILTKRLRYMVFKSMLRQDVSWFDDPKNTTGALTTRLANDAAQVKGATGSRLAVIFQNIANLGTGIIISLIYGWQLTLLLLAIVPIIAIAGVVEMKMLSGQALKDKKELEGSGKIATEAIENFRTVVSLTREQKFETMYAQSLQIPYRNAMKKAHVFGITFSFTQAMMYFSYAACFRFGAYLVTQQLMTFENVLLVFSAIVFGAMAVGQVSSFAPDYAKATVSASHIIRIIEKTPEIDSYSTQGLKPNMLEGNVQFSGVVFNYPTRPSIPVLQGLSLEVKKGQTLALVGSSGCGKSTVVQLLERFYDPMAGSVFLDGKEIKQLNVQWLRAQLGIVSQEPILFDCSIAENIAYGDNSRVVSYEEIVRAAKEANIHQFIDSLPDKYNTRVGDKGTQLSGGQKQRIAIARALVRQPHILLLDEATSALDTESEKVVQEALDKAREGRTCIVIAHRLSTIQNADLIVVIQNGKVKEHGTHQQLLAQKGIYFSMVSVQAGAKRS
Experimental: FIG. 12A is a fluorescence microscopy image showing immunofluorescence images of brains from Lexiscan®-treated mice of WT brain at 15 and 30 minutes after Lexiscan® treatment. Frozen brain sections were stained with GLUT1 (red), or P-gp (green) and counterstained with DAPI (blue). FIG. 12B is a fluorescence microscopy image showing an enlarged image of FIG. 12A. FIG. 12C is a graph summarizing the experimental results of a brain epirubicin accumulation assay in the Lexiscan®- and vehicle-treated (control) mice. Briefly, 10 mg/kg of epirubicin was injected intravenously with or without 0.05 mg/kg of Lexiscan®. Mice were perfused with ice-cold PBS and sacrificed at different time points. The accumulation of epirubicin in the brain was measured using fluorometric excitation at 488 nm and emission at 590 nm. *P<0.05 (n=4, 2-tailed Student's t test). FIG. 12D are fluorescence microscopy images showing fluorescent microscopic analysis of epirubicin accumulation in the brains of mice treated with Lexiscan® or PSC833 (a functional P-gp inhibitor) compared with vehicle (control). 10 mg/kg of epirubicin was injected intravenously with or without 0.05 mg/kg of Lexiscan® or 50 mg/kg of PSC833 for 15 minutes. Mice were perfused with ice-cold PBS and sacrificed. Brain was sectioned for microscopic analysis for full-brain image, and focal zoomed image from cortex was laid as an inset. Epirubicin is in red, and nucleus was counterstained with DAPI (blue). FIG. 12E are graphs showing the quantified intensity of epirubicin from different regions of cortex (CTX), cerebellum (CRBL), and hippocampus (HPC) from brains of control, Lexiscan®-, or PSC833-injected animals and depicted as graphs. The scale bars indicate 100 μm in FIG. 12A; 50 μm in FIG. 12B, and 5 mm in FIG. 12D). ***P<0.001 (n=50, 2-tailed Student's t test).
FIG. 14A is a western blot of P-gp and BCRP1 from mouse brain at 2 and 18 hours after NECA treatment. FIG. 14B are graphs showing the enumeration of the expression intensity of P-gp and BCRP1 from the western blots shown in FIG. 14A. The intensity of the bands from NECA treatment group was divided by that of DMSO control. […] For fluorescence microscopy, frozen brain sections were stained with GLUT1 (red) or P-gp (green) and counterstained with DAPI (blue). […] The accumulation of epirubicin in the brain was measured using fluorometry, with excitation at 488 nm and emission at 590 nm. *P<0.05 (n=4, 2-tailed Student's t test).
For Lexiscan® study, 10 mg/kg of epirubicin was injected with or without Lexiscan® (0.05 mg/kg) at different time points, and mice were sacrificed. […] Samples were spun down at 17,000 g for 30 minutes, and the concentration for epirubicin was analyzed with fluorimetry with […].

P-gp [2] = assay: Epirubicin accumulation and P-gp staining in MCF7 cells (fluorescence microscopy); type: cell-based, human; details: 1 μM
Experimental: MCF7 cells (human breast cancer cell line) were cultured in 24 well plates until they reached confluency. FIGS. 17A-17C are images of western blots of cells treated with vehicle control (i.e., DMSO) (“D”) or 1 μM of the broad spectrum AR agonist NECA (“N”) (FIG. 17A), 1 μM of the A2A AR agonist Lexiscan® (“L”) (FIG. 17B), or 1 μM of the A2B AR agonist BAY60 (“B”) (FIG. 17C), respectively for 24, 48, 72 hours. Cells were lysed with lysis buffer and expression levels of P-gp, MMP9, or VEGF analyzed by western blot. GAPDH was used as loading a control. FIG. 17D is a graph of experimental results showing that Lexiscan® down-regulates P-gp expression in MCF7 breast cancer cells. MCF7 breast cancer cells were treated with Lex (0.25 μM) concomitant with Rhodamine 123 (“Rho123”). […] Students T test, P<0.001. […] FIG. 17E is a fluorescence microscopy image showing MCF7 breast cancer cells grown on coverslips and treated with vehicle (DMSO, control), or A2 AR agonists, Lexiscan® (1 μM) or A1193 (1 μM) for 15 minutes in the presence of epirubicin. Cells were stained with an antibody to P-gp and mounted with DAPI. FIG. 17F is a graph of the fluorescent intensity quantified from FIG. 17E by measuring the mean fluorescent intensity (“MFI”) of epirubicin (pink) that is present in cell nuclei. ***=P<0.0001.
To further assess the modulation of A2A AR agonists on P-gp expression in MCF7 cells, applicants evaluated the accumulation of the P-gp substrate epirubicin in MCF7 cells. MCF7 cells were treated with DMSO (control), 1 μM Lexiscan®, or 1 μM of the A2A AR agonist A1193. […] In this case, the down-regulation of P-gp expression is equivalent to down-regulation of its function (Kim et al., “A2A Adenosine Receptor Modulates Drug Efflux Transporter P-Glycoprotein at the Blood-Brain Barrier,” J Clin Invest. 126(5):1717-33 (2016), which is hereby incorporated by reference in its entirety).

P-gp [3] = assay: P-gp expression in Caco-2 human tumor cell line (IFA MFI, western blot); type: cell-based; details: 1 μM for 30 minutes (IFA), 1, 0.5, 0.1 μM (western blot)
Experimental: FIG. 19A are fluorescence microscopy images of Caco-2 cells (originally isolated from a human primary colonic tumor) grown on coverslips and treated with Lexiscan® (1 μM) or A1193 (1 μM), or DMSO (vehicle) control for 30 minutes. Next, cells were fixed, permeabilized, and stained with an antibody to P-gp. After washing, cells were mounted with DAPI for nuclear staining. FIG. 19B is a graph of the MFI of P-gp. FIG. 19C is a graph of densitometric analysis of a western blot of Caco-2 cells treated with Lexiscan® in varying concentrations (1, 0.5, and 0.1 μM). Densitometric analysis was performed to quantify the amount of P-gp in western blot. Statistics: two tailed student's t test for FIG. 19B, *<0.5.
Applicants also evaluated whether A2A AR agonists can modulate P-gp expression in a human tumor cell line, Caco-2 cells. Briefly, Caco-2 cells (originally isolated from a human tumor) were grown on coverslips and treated with Lexiscan®, A1193, or vehicle control for 30 minutes. Cells were then fixed, permeabilized, and stained with an antibody to P-gp. After washing, cells were mounted with DAPI for nuclear staining (FIG. 19A). The mean fluorescence intensity (MFI) of P-gp was quantified and graphed in FIG. 19B.

[4] = cited from earlier work
P-gp [5] = assay: P-gp expression in HEK293T kidney cell line (IFA MFI, western blot); type: cell-based, human; details: Lexiscan® 1, 0.5, 0.1 μM, 15 minutes
Experimental: FIGS. 20A and 20B illustrate that Lexiscan® downregulates P-gp expression in the kidney cell line HEK293T while treatment with antagonist SCH58261 blocks Lexiscan®'s effects. […] HEK293T cells were grown to confluency on coverslips, and treated with varying concentrations of Lexiscan® (1, 0.5, and 0.1 μM) for 15 minutes. Cells were permeabilized and then stained with an antibody to P-gp (C219) and visualized under a fluorescent microscope. FIG. 20B is a graph of the MFI of P-gp in FIG. 20A. DMSO vs. Lexiscan® (“Lex”), *=P<0.05, Lexiscan® (“Lex”)+SCH58261 (“SCH”), ****P<0.0001.
HEK293T transformed kidney cells were treated with varying concentration of Lexiscan® (1, 0.5, 0.1 μM). Cells were lysed with lysis buffer ([…]), containing protease inhibitor cocktail. Samples were loaded on 7% SDS PAGE at 100V for 1 hour and transferred to nitrocellulose paper. The intensity of bands were analyzed by densitometry and plotted as a graph. Statistics: two-tailed student's t test: *=P<0.5, ****=P<0.0001.
Applicants investigated whether A2A AR agonists could modulate P-gp expression in the HEK293T human kidney cell line. HEK293T cells were grown to confluency on coverslips and treated with varying concentrations of Lexiscan, Lexiscan® plus the A2A antagonist (SCH58261), or vehicle control for 15 minutes. Cells were then permeabilized, stained with an antibody to P-gp, and visualized under a fluorescent microscope (FIG. 20A). The mean fluorescence intensity (MFI) of P-gp was quantified and graphed in FIG. 20B.
HEK293T cells were treated with various concentrations of Lexiscan, lysed, loaded onto an SDS-PAGE gel, transferred to a nitrocellulose membrane, and used for western blot analysis.

## C/C=C/C[C@@H](C)C(=O)[C@H]1C(=O)N[C@@H](C(C)C)C(=O)N(C)CC(=O)N(C)[C@@H](CC(C)C)C(=O)N[C@@H](C(C)C)C(=O)N(C)[C@@H](CC(C)C)C(=O)N[C@@H](C)C(=O)N[C@H](C)C(=O)N(C)[C@@H](CC(C)C)C(=O)N(C)[C@@H](CC(C)C)C(=O)N(C)[C@@H](C(C)C)C(=O)N1C [PSC833]
P-gp [1]
  Epirubicin fluorescent intensity in brain sections (cortex, cerebellum, hippocampus): Significantly lower epirubicin intensity; also recorded: lower epirubicin intensity than even the control treatment group

## CCNC(=O)[C@H]1O[C@@H](n2cnc3c(NCC(c4ccccc4)c4ccccc4)nc(C(=O)NCCNC(=O)NC4CCN(c5ccccn5)CC4)nc32)[C@H](O)[C@@H]1O [A1193, 6-(2,2-diphenylethylamino)-9-((2R,3R,4S,5S)-5-(ethylcarbamoyl)-3,4-dihydroxytetrahydrofuran-2-yl)-N-(2-(3-(1-(pyridin-2-yl)piperidin-4-yl)ureido)ethyl)-9H-purine-2-carboxamide]
P-gp [2]; 15 minutes
  P-gp expression (antibody staining): down-regulate P-gp expression
P-gp [2]; 15 minutes in the presence of epirubicin
  Epirubicin accumulation (MFI in cell nuclei): retained significantly more epirubicin than those treated with control
P-gp [3]
  P-gp expression: downregulate P-gp expression

## Nc1ncnc2c1ncn2[C@@H]1O[C@H](CO)[C@@H](O)[C@H]1O [adenosine, 9-β-D-Ribofuranosyl-9H-purin-6-amine]
[4]
  half-life: about 10 seconds

## Nc1nc2c(cnn2CCc2ccccc2)c2nc(-c3ccco3)nn12 [SCH58261, 2-(2-Furanyl)-7-(2-phenylethyl)-7H-pyrazolo[4,3-e][1,2,4]triazolo[1,5-c]pyrimidin-5-amine]
P-gp [5]
  P-gp expression (MFI): blocked the effects of Lexiscan®
